Test in all cases: Off-chip Mobility Shift Assay (MSA) kinase inhibition
Holding throughout (format): biochemical

The target of experiment [1] is T1, Erk5 (Homo sapiens, UniProt Q13164).
T1 construct: purchased Carna Biosciences
Particulars: for inhibition at 0.1 µM: inhibitor concentration 0.1 μM. The protocol: (§1) Off-chip Mobility Shift Assay (MSA) by Cama Biosciences, Inc (Natick, Mass.) a used for measuring the kinase activity and inhibition. • 1) The 5 μL of x4 compound solution, 5 μL of x4 Substrate/ATP/Metal solution, and 10 μL of x2 kinase solution were prepared with assay buffer (20 mM HEPES, 0.01% Triton X100, 2 mM DTT, pH 7.5) and mixed and incubated in a well of polypropylene 384 well microplate for 1 or 5 hour(s)* at room temperature.

The target of experiment [2] is T2, AurA (Homo sapiens, UniProt O14965).
T2 construct: purchased Carna Biosciences
T2 sequence (O14965 1-403): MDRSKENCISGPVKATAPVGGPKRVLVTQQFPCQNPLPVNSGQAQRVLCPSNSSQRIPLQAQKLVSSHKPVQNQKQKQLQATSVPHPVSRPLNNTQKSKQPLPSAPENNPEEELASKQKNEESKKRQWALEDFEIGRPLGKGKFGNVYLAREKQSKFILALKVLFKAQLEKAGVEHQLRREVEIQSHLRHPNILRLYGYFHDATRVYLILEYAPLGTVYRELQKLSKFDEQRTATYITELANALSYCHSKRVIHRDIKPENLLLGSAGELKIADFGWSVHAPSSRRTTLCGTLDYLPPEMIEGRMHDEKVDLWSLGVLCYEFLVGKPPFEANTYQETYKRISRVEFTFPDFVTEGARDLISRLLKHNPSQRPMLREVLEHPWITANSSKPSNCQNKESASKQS
The settings on record: for inhibition at 0.1 µM: inhibitor concentration 0.1 μM. The protocol: as §1

In experiment [3] the target is T3, HER2 (Homo sapiens, UniProt P04626).
T3 construct: purchased Carna Biosciences
Particulars: for inhibition at 0.1 µM: inhibitor concentration 0.1 μM. The protocol:
as §1

Experiment [4] has as its target T4, ALK (Homo sapiens, UniProt Q9UM73).
T4 construct: purchased Carna Biosciences
The settings on record: for inhibition at 0.1 µM: inhibitor concentration 0.1 μM. Here is the method:
as §1

Experiment [5] concerns the target T5, RET (Homo sapiens, UniProt P07949).
T5 construct: purchased Carna Biosciences
The settings on record: for inhibition at 0.1 µM: inhibitor concentration 0.1 μM. Here is the method: as §1

Experiment [6] deals with T6, KIT(T670I) (Homo sapiens, UniProt P10721, T670I).
T6 construct: purchased Carna Biosciences
The settings on record: for inhibition at 0.1 µM: inhibitor concentration 0.1 μM. The protocol: as §1

Experiment [7] has as its target T7, MAP2K2 (Homo sapiens, UniProt P36507).
T7 construct: purchased Carna Biosciences
The settings on record: for inhibition at 0.1 µM: inhibitor concentration 0.1 μM. Here is the method:
as §1

Experiment [8] has as its target T8, PIK3CA/PIK3R1 (Homo sapiens, UniProt P42336).
T8 construct: purchased Carna Biosciences
Particulars: for inhibition at 0.1 µM: inhibitor concentration 0.1 μM. The protocol: as §1

Experiment [9] has as its target T9, BRAF (Homo sapiens, UniProt P15056).
T9 construct: purchased Carna Biosciences
The protocol:
as §1

Experiment [10] concerns the target T10, BTK (Homo sapiens, UniProt Q06187).
T10 construct: purchased Carna Biosciences
The settings on record: for inhibition at 0.1 µM: inhibitor concentration 0.1 μM. The protocol:
as §1

Experiment [11] addresses T11, FLT3 (Homo sapiens, UniProt P36888).
T11 construct: purchased Carna Biosciences
T11 sequence (P36888 27-993): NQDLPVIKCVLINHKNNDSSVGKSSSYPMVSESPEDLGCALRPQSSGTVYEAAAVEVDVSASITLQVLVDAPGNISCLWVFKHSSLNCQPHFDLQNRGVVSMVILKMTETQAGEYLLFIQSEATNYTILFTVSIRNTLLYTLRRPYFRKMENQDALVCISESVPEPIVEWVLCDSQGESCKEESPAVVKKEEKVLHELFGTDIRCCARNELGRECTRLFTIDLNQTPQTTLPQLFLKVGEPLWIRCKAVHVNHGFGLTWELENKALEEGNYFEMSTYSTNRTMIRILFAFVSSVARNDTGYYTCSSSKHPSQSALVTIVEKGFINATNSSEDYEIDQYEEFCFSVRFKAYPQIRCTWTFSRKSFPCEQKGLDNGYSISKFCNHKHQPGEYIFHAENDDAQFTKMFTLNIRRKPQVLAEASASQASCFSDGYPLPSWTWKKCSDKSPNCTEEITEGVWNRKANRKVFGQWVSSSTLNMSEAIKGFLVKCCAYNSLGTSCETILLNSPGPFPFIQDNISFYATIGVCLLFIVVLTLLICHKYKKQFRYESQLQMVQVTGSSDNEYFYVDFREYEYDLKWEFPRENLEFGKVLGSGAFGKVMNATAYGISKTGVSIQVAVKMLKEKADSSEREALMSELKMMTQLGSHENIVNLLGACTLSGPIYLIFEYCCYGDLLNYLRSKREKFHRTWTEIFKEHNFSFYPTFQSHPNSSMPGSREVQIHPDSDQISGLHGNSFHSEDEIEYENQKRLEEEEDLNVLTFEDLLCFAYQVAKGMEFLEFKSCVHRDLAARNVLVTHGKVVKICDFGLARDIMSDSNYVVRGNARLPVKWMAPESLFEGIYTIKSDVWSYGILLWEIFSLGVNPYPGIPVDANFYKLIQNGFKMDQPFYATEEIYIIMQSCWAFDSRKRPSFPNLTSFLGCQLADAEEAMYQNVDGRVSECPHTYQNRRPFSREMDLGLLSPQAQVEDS
Particulars: for inhibition at 0.1 µM: inhibitor concentration 0.1 μM. The protocol:
as §1

Experiment [12] deals with T12, KIT(D816V) (Homo sapiens, UniProt P10721, D816V).
T12 construct: purchased Carna Biosciences
The settings on record: for inhibition at 0.1 µM: inhibitor concentration 0.1 μM. Here is the method: as §1

The target in experiment [13] is T13, MNK2 (Homo sapiens, UniProt Q9HBH9).
T13 construct: purchased Carna Biosciences
Particulars: for inhibition at 0.1 µM: inhibitor concentration 0.1 μM. Here is the method: as §1

For experiment [14], the target named is T14, KDR (Homo sapiens, UniProt P35968).
T14 construct: purchased Carna Biosciences
Particulars: for inhibition at 0.1 µM: inhibitor concentration 0.1 μM. The protocol: as §1

Experiment [15] addresses T15, LYNa (Homo sapiens, UniProt P07948).
T15 construct: purchased Carna Biosciences
Particulars: for inhibition at 0.1 µM: inhibitor concentration 0.1 μM. The protocol:
as §1

Experiment [16] has as its target T16, MAP2K1 (Homo sapiens, UniProt Q02750).
T16 construct: purchased Carna Biosciences
The settings on record: for inhibition at 0.1 µM: inhibitor concentration 0.1 μM. The protocol:
as §1

The target of experiment [17] is T17, AKT2 (Homo sapiens, UniProt P31751).
T17 construct: purchased Carna Biosciences
The settings on record: inhibitor concentration 0.1 μM. Here is the method: as §1

Experiment [18] addresses T18, EGFR(L858R) (Homo sapiens, UniProt P00533, L858R).
T18 construct: purchased Carna Biosciences
Particulars: inhibitor concentration 0.1 μM. Here is the method:
as §1

Experiment [19] addresses T19, AurB (Homo sapiens, UniProt Q96GD4).
T19 construct: purchased Carna Biosciences, Inc
The settings on record: inhibitor concentration 0.1 μM. Here is the method: as §1

Experiment [20] concerns the target T20, PIM2 (Homo sapiens, UniProt Q9P1W9).
T20 construct: purchased Carna Biosciences
The settings on record: inhibitor concentration 0.1 μM. Here is the method: as §1

Experiment [21] has as its target T21, MLK1 (Homo sapiens, UniProt P80192).
T21 construct: purchased Carna Biosciences
Particulars: inhibitor concentration 0.1 μM. The protocol: as §1

Setting [22] is: inhibitor concentration 0.01 μM.
The mark [23] stands for this setting: inhibitor concentration 0.01 μM, 0.01 µM.

T5 sequence (P07949 29-1114): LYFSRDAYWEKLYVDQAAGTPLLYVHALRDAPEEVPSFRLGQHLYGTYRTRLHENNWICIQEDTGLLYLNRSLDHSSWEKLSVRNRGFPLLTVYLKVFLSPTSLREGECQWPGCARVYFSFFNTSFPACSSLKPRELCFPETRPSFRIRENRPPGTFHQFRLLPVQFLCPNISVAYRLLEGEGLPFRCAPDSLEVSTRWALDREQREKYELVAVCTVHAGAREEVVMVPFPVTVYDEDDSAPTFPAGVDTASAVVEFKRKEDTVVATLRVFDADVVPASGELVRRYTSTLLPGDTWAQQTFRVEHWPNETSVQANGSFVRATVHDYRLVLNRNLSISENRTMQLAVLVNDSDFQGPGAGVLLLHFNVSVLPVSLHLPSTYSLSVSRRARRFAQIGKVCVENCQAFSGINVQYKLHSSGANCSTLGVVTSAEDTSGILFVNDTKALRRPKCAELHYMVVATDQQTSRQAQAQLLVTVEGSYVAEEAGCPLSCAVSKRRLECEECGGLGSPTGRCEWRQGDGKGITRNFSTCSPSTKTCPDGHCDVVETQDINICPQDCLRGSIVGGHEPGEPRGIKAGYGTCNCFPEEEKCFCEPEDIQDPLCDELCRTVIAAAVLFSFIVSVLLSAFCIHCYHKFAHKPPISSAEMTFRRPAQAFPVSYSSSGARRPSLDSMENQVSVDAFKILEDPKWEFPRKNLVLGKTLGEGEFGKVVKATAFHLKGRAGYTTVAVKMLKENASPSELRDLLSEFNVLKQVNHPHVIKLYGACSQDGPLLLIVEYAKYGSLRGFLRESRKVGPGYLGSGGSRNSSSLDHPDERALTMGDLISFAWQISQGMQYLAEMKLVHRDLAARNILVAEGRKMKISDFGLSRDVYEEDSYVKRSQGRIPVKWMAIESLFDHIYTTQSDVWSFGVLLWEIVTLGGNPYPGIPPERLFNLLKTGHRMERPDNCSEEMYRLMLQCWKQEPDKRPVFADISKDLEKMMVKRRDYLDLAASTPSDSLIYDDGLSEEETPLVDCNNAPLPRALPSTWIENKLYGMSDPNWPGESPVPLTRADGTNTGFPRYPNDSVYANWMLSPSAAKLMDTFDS
T21 sequence (P80192 whole entry): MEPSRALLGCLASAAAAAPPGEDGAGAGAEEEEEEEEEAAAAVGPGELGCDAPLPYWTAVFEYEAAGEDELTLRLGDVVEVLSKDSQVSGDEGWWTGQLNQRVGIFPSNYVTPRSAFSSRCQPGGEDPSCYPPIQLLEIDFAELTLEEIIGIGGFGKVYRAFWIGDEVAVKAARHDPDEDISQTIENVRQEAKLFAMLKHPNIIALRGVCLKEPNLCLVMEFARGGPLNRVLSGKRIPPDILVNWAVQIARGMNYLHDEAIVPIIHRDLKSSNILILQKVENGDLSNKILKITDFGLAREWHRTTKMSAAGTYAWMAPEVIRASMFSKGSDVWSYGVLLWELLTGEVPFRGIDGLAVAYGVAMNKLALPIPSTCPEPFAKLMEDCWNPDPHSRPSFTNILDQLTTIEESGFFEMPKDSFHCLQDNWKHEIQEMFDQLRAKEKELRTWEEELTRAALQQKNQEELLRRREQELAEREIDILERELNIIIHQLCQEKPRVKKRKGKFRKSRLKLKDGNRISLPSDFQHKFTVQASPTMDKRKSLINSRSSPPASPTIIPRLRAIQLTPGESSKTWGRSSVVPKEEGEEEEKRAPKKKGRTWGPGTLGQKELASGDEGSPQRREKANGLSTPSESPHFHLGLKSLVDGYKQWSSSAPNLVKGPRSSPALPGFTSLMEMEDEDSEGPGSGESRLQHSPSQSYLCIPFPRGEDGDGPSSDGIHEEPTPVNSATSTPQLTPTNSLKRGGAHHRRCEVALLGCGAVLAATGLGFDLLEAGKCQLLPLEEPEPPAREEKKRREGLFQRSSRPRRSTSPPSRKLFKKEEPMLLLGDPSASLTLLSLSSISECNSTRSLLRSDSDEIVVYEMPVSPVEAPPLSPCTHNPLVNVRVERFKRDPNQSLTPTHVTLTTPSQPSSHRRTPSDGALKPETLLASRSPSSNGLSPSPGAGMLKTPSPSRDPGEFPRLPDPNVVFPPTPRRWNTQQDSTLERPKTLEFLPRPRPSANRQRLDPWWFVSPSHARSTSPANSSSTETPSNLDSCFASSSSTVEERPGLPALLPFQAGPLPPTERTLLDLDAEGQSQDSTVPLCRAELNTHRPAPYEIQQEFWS
T13 sequence (Q9HBH9 whole entry): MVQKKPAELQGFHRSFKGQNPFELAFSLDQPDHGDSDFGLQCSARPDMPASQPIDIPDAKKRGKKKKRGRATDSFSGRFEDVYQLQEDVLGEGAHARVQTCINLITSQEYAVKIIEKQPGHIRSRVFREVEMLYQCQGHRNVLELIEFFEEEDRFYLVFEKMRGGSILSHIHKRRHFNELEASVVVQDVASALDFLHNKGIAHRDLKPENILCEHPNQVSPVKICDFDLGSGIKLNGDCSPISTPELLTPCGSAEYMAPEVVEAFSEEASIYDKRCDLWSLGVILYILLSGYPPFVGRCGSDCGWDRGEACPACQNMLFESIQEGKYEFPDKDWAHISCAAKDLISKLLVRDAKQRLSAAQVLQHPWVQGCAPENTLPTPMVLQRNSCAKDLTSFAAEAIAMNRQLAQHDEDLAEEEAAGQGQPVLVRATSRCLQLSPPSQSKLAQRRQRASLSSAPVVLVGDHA
T1 sequence (Q13164 whole entry): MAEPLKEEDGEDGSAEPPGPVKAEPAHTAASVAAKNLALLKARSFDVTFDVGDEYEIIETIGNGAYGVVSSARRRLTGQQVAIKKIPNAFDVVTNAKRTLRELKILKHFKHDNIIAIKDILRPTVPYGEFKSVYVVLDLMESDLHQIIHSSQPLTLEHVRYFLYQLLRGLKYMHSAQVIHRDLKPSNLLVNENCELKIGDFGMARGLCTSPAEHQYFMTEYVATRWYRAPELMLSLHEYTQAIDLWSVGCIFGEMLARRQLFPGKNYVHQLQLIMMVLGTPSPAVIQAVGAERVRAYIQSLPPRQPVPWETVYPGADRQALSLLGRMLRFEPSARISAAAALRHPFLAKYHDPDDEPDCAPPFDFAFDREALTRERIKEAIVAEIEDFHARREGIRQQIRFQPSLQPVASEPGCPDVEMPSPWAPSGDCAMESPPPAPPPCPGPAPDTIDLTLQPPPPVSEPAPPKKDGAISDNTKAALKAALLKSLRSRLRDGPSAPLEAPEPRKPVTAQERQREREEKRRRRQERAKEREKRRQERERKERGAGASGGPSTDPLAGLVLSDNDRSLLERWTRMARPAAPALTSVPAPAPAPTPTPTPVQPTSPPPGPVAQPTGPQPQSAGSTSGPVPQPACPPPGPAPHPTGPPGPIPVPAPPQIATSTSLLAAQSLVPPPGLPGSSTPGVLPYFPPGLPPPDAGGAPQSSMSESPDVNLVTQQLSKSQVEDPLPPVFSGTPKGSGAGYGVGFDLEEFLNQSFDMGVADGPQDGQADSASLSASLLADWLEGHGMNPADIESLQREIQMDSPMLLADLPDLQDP
T14 sequence (P35968 20-1356): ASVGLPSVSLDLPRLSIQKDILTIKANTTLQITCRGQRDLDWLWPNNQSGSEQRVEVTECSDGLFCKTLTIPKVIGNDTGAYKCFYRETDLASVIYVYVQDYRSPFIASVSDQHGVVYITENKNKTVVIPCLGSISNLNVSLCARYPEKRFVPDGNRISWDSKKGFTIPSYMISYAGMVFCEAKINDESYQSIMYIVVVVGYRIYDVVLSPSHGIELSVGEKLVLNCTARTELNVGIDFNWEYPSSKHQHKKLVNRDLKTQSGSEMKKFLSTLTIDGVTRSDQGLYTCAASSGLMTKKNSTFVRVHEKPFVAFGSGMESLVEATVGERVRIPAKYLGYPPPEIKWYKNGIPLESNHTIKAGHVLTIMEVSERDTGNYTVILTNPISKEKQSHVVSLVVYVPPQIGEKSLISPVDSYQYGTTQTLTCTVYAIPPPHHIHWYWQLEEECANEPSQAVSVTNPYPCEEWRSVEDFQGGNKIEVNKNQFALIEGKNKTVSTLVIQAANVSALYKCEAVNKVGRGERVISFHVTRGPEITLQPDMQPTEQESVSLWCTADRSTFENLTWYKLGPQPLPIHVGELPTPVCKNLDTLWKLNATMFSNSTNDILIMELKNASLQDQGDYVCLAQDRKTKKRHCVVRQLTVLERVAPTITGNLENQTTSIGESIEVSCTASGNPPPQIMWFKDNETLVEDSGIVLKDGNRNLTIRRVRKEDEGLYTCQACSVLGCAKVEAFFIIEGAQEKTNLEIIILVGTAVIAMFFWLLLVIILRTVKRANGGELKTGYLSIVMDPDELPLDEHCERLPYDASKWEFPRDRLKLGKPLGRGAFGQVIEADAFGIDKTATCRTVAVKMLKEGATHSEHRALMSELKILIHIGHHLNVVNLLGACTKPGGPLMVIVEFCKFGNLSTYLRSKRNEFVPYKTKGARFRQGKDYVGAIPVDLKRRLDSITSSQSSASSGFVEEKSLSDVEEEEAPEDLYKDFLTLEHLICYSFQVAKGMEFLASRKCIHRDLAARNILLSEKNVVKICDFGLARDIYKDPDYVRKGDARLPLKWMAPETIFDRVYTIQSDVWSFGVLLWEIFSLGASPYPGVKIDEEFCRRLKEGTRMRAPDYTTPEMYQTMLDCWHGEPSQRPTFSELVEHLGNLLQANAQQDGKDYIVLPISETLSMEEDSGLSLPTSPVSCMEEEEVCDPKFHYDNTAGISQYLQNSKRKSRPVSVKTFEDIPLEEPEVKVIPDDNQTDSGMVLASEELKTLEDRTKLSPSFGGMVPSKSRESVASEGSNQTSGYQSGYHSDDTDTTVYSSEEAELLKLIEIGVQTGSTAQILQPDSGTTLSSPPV

As for `O=C(c1c(F)ccc(NS(=O)(=O)CCCO)c1F)c1c[nH]c2ncc(-c3ccc(Cl)cc3)cc12` [200-17, N-[3-[5-(4-chlorophenyl)-1H-pyrrolo[2,3-b]pyridine-3-carbonyl]-2,4-difluorophenyl]-3-hydroxypropane-1-sulfonamide], the inhibition – broadly, the share of the control response that was lost under treatment – at 1 µM in experiment [1] (inhibitor concentration 1 μM) is greater than 50%; in [2] (inhibitor concentration 1 μM), greater than 50%; in [3] (inhibitor concentration 1 μM), less than 50%; in [4] (inhibitor concentration 1 μM) it was greater than 50%; in experiment [5] (inhibitor concentration 1 μM), greater than 50%; in experiment [6] (inhibitor concentration 1 μM), less than 50%. In addition, the inhibition at 1 µM in [7] (inhibitor concentration 1 μM) is less than 50%; in experiment [8] (inhibitor concentration 1 μM), greater than 50%; in experiment [9] (inhibitor concentration 1 μM), less than 50%; in experiment [10] (inhibitor concentration 1 μM), less than 50%; in experiment [11] (inhibitor concentration 1 μM), greater than 50%; in experiment [12] (inhibitor concentration 1 μM), greater than 50%. The inhibition at 1 µM is greater than 50% in experiment [13] (inhibitor concentration 1 μM), greater than 50% in [14] (inhibitor concentration 1 μM), greater than 50% in [15] (inhibitor concentration 1 μM) and less than 50% in experiment [16] (inhibitor concentration 1 μM). The inhibition at 0.01 µM in experiment [5] (setting [22]), in experiment [10] (setting [22]), in [14] (setting [22]) and in experiment [15] (setting [22]) was less than 30% throughout. For the same compound, the inhibition at 0.1 µM in experiment [5] was less than 50%; in [10] it was less than 50%; in experiment [14], greater than 50%; in [15], greater than 50%.
`CC(O)CS(=O)(=O)Nc1ccc(F)c(C(=O)c2c[nH]c3ncc(-c4ccc(Cl)cc4)cc23)c1F` (stereo not shown) [200-115]: the inhibition at 0.1 µM in [17], in experiment [1], in experiment [2], in experiment [3], in experiment [18] and in experiment [4] was less than 30% throughout. Moreover, the inhibition at 0.1 µM in experiment [19], in experiment [5], in experiment [20], in experiment [6], in experiment [7] and in experiment [8] was less than 30% in each case. In addition, the inhibition at 0.1 µM in experiment [10], in experiment [21], in experiment [11], in experiment [12], in experiment [13] and in experiment [14] was less than 30% each time. In addition, the inhibition at 0.1 µM in experiment [15] and in [16] was less than 30% each time.
For the compound `C/C=C/S(=O)(=O)Nc1ccc(F)c(C(=O)c2c[nH]c3ncc(-c4ccc(Cl)cc4)cc23)c1F` [200-93b], the “KIT(T670I) inhibition” value in experiment [6] (setting [23]) is recorded as less than 20%. Further, in experiment [9] (setting [23]), the BRAF inhibition is less than 20%. Moreover, the “KIT(D816V) inhibition” value in experiment [12] (setting [23]) was less than 20%.
As for `O=C(c1c(F)ccc(NS(=O)(=O)CC(O)CO)c1F)c1c[nH]c2ncc(-c3ccc(Cl)cc3)cc12` (stereo not drawn) [200-73, N-[3-[5-(4-chlorophenyl)-lH-pyrrolo [2,3-b]pyridine-3-carbonyl]-2,4-difluorophenyl]-2,3-dihydroxypropane-l-sulfonamide], the inhibition at 0.1 µM in experiment [17], in experiment [1], in [2], in [3], in [18] and in [4] was less than 30% in each case. Further, the inhibition at 0.1 µM in experiment [19], in experiment [5], in experiment [20], in experiment [6], in experiment [7] and in experiment [8] was less than 30% throughout. In addition, the inhibition at 0.1 µM in experiment [9] (inhibitor concentration 0.1 μM), in experiment [10], in experiment [21], in [11], in experiment [12] and in [13] was less than 30% in each case. Further, the inhibition at 0.1 µM in experiment [14], in [15] and in experiment [16] was less than 30% throughout.
For `CC(=O)CS(=O)(=O)Nc1ccc(F)c(C(=O)c2c[nH]c3ncc(-c4ccc(Cl)cc4)cc23)c1F` [200-117], the inhibition at 0.1 µM in experiment [17], in experiment [1], in experiment [2], in experiment [3], in experiment [18] and in [4] was less than 30% in each case. The inhibition at 0.1 µM in experiment [19], in experiment [5], in experiment [20], in [6], in experiment [7] and in [8] was less than 30% each time. Moreover, the inhibition at 0.1 µM in experiment [10] is less than 30%; in experiment [21], less than 30%; in experiment [11], less than 30%; in experiment [12], less than 30%; in experiment [13], greater than 30%; in [14], less than 30%. Moreover, the inhibition at 0.1 µM in experiment [15] was greater than 30%; in experiment [16], less than 30%.

(Values after patent publication US10106538B2, “Inhibitors of protein kinases” (PRINCETON DRUG DISCOVERY INC, priority 2015, dated 2018).)
